Here are results for 14 compounds from patent US6849732B2, “Metalloproteinase inhibitors, pharmaceutical compositions containing them and their pharmaceutical uses, and methods and intermediates useful for their preparation” (Agouron Pharmaceuticals, Inc., priority 1995, dated 2005).

What all share (type): biochemical
Experiment [1] deals with Coll3 (Homo sapiens, UniProt P45452). Kind of experiment: MCA fluorogenic enzyme assay, competitive inhibition analysis (Ki,app), Coll3. The note with it: MCA peptide substrate, 37° C., pH 7.5, read-out: Enzyme Inhibition Constants (K1) Coll3.
The target of experiment [2] is T1, matrilysin (Matr.) (Homo sapiens, UniProt P09237).
T1 sequence (P09237 95-267): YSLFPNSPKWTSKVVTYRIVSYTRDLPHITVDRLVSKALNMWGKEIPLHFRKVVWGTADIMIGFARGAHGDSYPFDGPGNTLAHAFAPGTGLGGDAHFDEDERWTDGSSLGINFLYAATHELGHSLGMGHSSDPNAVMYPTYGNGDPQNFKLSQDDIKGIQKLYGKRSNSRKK
Kind of experiment: MCA fluorogenic enzyme assay, competitive inhibition analysis (Ki,app), matrilysin. The settings on record: MCA peptide substrate, 37° C., pH 7.5, read-out: Enzyme Inhibition Constants (K1) Matr. As to the method:
Stromelysin enzymatic activity was measured using a modified version of a resonance energy transfer fluorogenic assay as described in FEBS, vol. 296(3), p. 263 (1992), the disclosure of which is incorporated herein by reference. The MCA-peptide substrate is shown below. The fluorescent MCA group is quenched by resonance energy transfer to the 2,4-dinitrophenyl group. Matrix metalloproteinases cleave this substrate at the Gly-Leu bond. Cleavage results in the loss of energy transfer and a large increase in fluorescence of the MCA group. [drawing 56] 7-methoxycoumarin-4-yl-acetyl-pro-leu-gly-leu-3-(2,4-dinitrophenyl)-L-2,3-diaminoproprionyl-ala-arg-NH2
The MCA assay was performed at 37° C. in buffer containing 50 mM Tricine (pH 7.5), 10 mM CaCl2, 200 mM NaCl, and 1% DMSO with the following concentrations of matrix metalloproteinases: 1.4 nM stromelyin, 0.063 nM matrilysin, and 0.030 nM gelatinase A. The concentration of MCA substrate was 10 or 20 μM in a final volume of 1.6 mL. Fluorescence data was collected with Perkin-Elmer LS-5B and LS-5B spectrofluorimeters with λexcitation=328 nm and λemission=393 nm. Spectrofluorimeters were interfaced with IBM-compatible microcomputer systems.
The Km for the MCA peptide substrate with the matrix metalloproteinases is quite high and exceeds its solubility under assay conditions. Consequently, the apparent Ki (Ki,app) was determined to describe the strength of inhibition. However, in this case, Ki,app would be essentially equal to Ki since [S]<<Km. For the determination of Ki,app, the concentration of the inhibitor was varied at a constant and low concentration of substrate and the steady-state rates of fluorescence change determined. In most cases absorptive quench due to the presence of ligand was not observed. For slow-binding inhibitors, onset of inhibition curves were collected for at least 45 minutes so that equilibrium was established. Steady-state rates of fluorescence change were obtained by fitting a curve to an equation for a single exponential decay containing a linear phase. The fitted value of the linear phase was taken as the steady-state rate. The steady-state rates were fitted to the Michaelis equation describing competitive inhibition by non-linear methods. Data resulting from tight-binding inhibition was analyzed, and Ki,app determined by fitting the data to the tight-binding equation of Morrison See (Biochem. Biophys. Acta, vol. 185, pp. 269-286 (1969)) by non-linear methods.

Experiment [3] concerns the target stromelysin (HSLN) (Homo sapiens, UniProt P08254). Kind of experiment: MCA fluorogenic enzyme assay, competitive inhibition analysis (Ki,app), stromelysin.
In experiment [4] the target is T2, HFC (Homo sapiens, UniProt P03956).
T2 sequence (P03956 100-469): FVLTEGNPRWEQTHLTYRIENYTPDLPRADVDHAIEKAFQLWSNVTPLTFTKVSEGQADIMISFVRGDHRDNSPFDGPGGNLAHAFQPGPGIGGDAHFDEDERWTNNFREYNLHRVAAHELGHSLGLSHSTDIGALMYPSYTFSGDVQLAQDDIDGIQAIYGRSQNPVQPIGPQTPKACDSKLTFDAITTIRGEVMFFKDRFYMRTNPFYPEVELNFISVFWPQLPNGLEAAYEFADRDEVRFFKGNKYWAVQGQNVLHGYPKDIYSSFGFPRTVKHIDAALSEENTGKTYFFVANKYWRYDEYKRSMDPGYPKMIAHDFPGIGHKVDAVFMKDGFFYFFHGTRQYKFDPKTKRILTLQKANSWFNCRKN
Kind of experiment: MCA fluorogenic enzyme assay, competitive inhibition analysis (Ki,app), HFC. The settings on record: MCA peptide substrate, 37° C., pH 7.5, read-out: Enzyme Inhibition Constants (K1) HFC.

Experiment [5] addresses T3, gelatinase A (HG72kD) (Homo sapiens, UniProt P08253).
T3 sequence (P08253 110-660): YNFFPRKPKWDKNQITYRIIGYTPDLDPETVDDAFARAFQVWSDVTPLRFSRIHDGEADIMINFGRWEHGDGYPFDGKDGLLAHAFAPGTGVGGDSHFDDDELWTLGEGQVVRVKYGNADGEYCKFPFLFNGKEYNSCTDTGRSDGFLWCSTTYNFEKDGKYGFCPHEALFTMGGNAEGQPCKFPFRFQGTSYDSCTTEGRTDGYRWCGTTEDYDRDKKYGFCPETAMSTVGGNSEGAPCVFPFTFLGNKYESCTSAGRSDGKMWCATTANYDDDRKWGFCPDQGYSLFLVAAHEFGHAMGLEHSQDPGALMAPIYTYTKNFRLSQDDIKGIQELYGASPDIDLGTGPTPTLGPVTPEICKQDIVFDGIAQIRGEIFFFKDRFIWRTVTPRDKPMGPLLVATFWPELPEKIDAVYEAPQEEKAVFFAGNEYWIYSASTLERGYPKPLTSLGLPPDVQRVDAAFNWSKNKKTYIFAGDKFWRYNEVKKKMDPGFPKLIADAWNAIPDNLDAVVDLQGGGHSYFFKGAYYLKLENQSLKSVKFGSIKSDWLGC
Kind of experiment: MCA fluorogenic enzyme assay, competitive inhibition analysis (Ki,app), gelatinase A. The note with it: MCA peptide substrate, 37° C., pH 7.5, read-out: Enzyme Inhibition Constants (K1) HG72kD.

Setting [6] is: Ki,app, MCA peptide substrate, 37° C., pH 7.5, read-out: Enzyme Inhibition Constants (K1) HSLN.

Counter-ions that a name gives are not always drawn. Like-named read-outs stand apart in the source and are kept apart here.

Chain of stromelysin (HSLN) (P08254 100-477): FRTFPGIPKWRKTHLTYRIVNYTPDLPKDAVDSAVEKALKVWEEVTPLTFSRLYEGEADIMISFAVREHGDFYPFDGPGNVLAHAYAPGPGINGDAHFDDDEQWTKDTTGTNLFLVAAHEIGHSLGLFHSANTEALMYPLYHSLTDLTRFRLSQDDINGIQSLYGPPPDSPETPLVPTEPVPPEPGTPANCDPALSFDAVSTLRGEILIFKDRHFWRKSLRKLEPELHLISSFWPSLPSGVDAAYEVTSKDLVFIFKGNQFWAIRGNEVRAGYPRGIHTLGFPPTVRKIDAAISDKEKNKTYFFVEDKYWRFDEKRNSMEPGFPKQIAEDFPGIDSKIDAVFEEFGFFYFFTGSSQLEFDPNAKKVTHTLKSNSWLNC

As for `CC(C)(C)OC(=O)N1CCN(S(=O)(=O)c2ccc(Oc3ccc(C#N)cc3)cc2)C(C(=O)NO)C1` (racemic) [Example 9(c), 2(R/S)-N-hydroxy-1-(4-(4-cyanophenoxy)benzenesulfonyl)-4-(t-butoxycarbonyl)-piperazine-2-carboxamide], the Ki was found to be 1.97 nM in experiment [1]; 3570 nM in experiment [2]; 14 nM in experiment [3] (setting [6]); 580 nM in experiment [4]; 0.696 nM in experiment [5].

In the case of `O=C(NO)[C@H]1CNCCN1S(=O)(=O)c1ccc(Oc2ccc(Cl)cc2)cc1` [Example 10(a), 2(R)-N-hydroxy-1-(4-(4-chlorophenoxy)benzenesulfonyl)-piperazine-2-carboxamide hydrochloride], the Ki was 0.363 nM in experiment [1]; 171 nM in experiment [2]; 1 nM in experiment [3] (setting [6]); 34 nM in experiment [4]; 0.413 nM in experiment [5].

Turning to `CC1(C)[C@H](C(=O)NO)N(S(=O)(=O)c2ccc(Oc3ccc(Br)cc3)cc2)CC[S@@+]1[O-]` [Example 17(a), 1(R),3(S)-N-hydroxy-4-(4-(4-bromophenoxy)benzenesulfonyl)-2,2-dimethyl-1-oxo-tetrahydro-2H-1,4-thiazine-3-carboxamide], the Ki in experiment [1] is 0.01 nM; in experiment [2] it was 11 nM; in experiment [3] (setting [6]) it was 0.056 nM; in experiment [4] it was 3.6 nM; in experiment [5] it was 0.009 nM.

On to `Cn1cnc(S(=O)(=O)N2CCN(S(=O)(=O)c3ccc(Oc4ccc(Cl)cc4)cc3)[C@@H](C(=O)NO)C2)c1` [Example 12(d), 2 (R)-N-hydroxy-1-(4-(4-chlorophenoxy)benzenesulfonyl)-4-(1-methylimidazole-4-sulfonyl)-piperazine-2-carboxamide], for which the Ki came out at 0.006 nM in experiment [1]; 40 nM in experiment [2]; 0.09 nM in experiment [3] (setting [6]); 7 nM in experiment [4]; 0.004 nM in experiment [5].

Take `O=C(NO)C1CSCCN1S(=O)(=O)c1ccc(Oc2ccc(F)cc2)cc1` (racemic) [Example 13(c), 3(R/S)-N-hydroxy-4-(4-(4-fluorophenoxy)benzenesulfonyl)-tetrahydro-2H-1,4-thiazine-3-carboxamide]: the Ki in experiment [1] turned out to be 0.035 nM; in experiment [2] it was 313 nM; in experiment [3] (setting [6]) it was 0.53 nM; in experiment [4] it was 40 nM; in experiment [5], 0.028 nM.

Turning to `CC1(C)SCCN(S(=O)(=O)c2ccc(Oc3ccccn3)cc2)[C@H]1C(=O)NO` [Example 18(b), 3(S)-N-hydroxy-4-(4-((pyrid-2-yl)oxy)benzenesulfonyl)-2,2-dimethyl-tetrahydro-2H-1,4-thiazine-3-carboxamide], the Ki came to 0.074 nM in experiment [1]; 70 nM in experiment [2]; 0.51 nM in experiment [3]; 12 nM in experiment [4]; 0.202 nM in experiment [5].

Turning to `O=C(NO)[C@H]1CNCCN1S(=O)(=O)c1ccc(Oc2ccc(F)cc2)cc1` [Example 10(b), 2(R)-N-hydroxy-1-(4-(4-fluorophenoxy)benzenesulfonyl)-piperazine-2-carboxamide hydrochloride], the Ki was 0.257 nM in experiment [1]; 365 nM in experiment [2]; 0.98 nM in experiment [3] (setting [6]); 44 nM in experiment [4]; 0.232 nM in experiment [5].

Turning to `O=C(NO)C1C[S+]([O-])CCN1S(=O)(=O)c1ccc(Oc2ccc(F)cc2)cc1` (racemic) [Example 14(b), 1(R/S),3(R/S)-N-hydroxy-1-oxo-4-(4-(4-fluorophenoxy)benzene-sulfonyl)-tetrahydro-2H-1,4-thiazine-3-carboxamide], the Ki was determined as 0.016 nM in experiment [1]; 306 nM in experiment [2]; 0.79 nM in experiment [3] (setting [6]); 28 nM in experiment [4]; 0.034 nM in experiment [5].

On to `CS(=O)(=O)N1CCN(S(=O)(=O)c2ccc(Oc3ccc(F)cc3)cc2)[C@@H](C(=O)NO)C1` [Example 12(b)], for which the Ki in experiment [1] came to 0.005 nM; in experiment [2], 52 nM; in experiment [3] (setting [6]) it was 0.13 nM; in experiment [4], 4.7 nM; in experiment [5] it was 0.007 nM.

Consider `CC1(C)SCCN(S(=O)(=O)c2ccc(Oc3ccc(Br)cc3)cc2)[C@H]1C(=O)NO` [Example 16(a), 3(S)-N-hydroxy-4-(4-(4-bromophenoxy)benzenesulfonyl)-2,2-dimethyl-tetrahydro-2H-1,4-thiazine-3-carboxamide], for which the Ki was 0.001 nM in experiment [1]; 2.8 nM in experiment [2]; 0.017 nM in experiment [3] (setting [6]); 0.56 nM in experiment [4]; 0.003 nM in experiment [5].

As for “3(S)-4-(4-(4-(furan-3-yl)phenoxy)benzenesulfonyl-N-hydroxy-tetrahydro-2H-1,4-thiazine-3-carboxamide [Example 20]”, the Ki in experiment [1] came to 0.002 nM; in experiment [2], 0.7 nM; in experiment [3] (setting [6]) it was 0.06 nM; in experiment [4] it was 1.4 nM; in experiment [5], 0.0017 nM.

As to `CC(C)(C)OC(=O)N1CCN(S(=O)(=O)c2ccc(Oc3ccccn3)cc2)C(C(=O)NO)C1` (racemic) [Example 9(d), 2(R/S)-N-hydroxy-1-(4-(pyrid-2-yl)oxybenzenesulfonyl)-4-(t-butoxycarbonyl)-piperazine-2-carboxamide], the Ki in experiment [1] is 1.64 nM; in experiment [2] it was 2850 nM; in experiment [3] (setting [6]), 17 nM; in experiment [4] it was 550 nM; in experiment [5], 0.716 nM.

Regarding `O=C1C[C@H](C(=O)NO)N(S(=O)(=O)c2ccc(Oc3ccccc3)cc2)CN1` [Example 15(a), 6(R)-(N-hydroxycarbamoyl)-1-(4-phenoxy)benzenesulfonyl-tetrahydropyrimidin-4-one], the Ki in experiment [1] came to 0.124 nM; in experiment [2], 1300 nM; in experiment [3] (setting [6]), 4.6 nM; in experiment [4], 210 nM; in experiment [5], 0.057 nM.

Regarding `O=C(NO)[C@@H]1C[S@+]([O-])CCN1S(=O)(=O)c1ccc(Oc2ccc(Br)cc2)cc1` (racemic) [Example 14(a), 1(R/S),3(R/S)-N-hydroxy-1-oxo-4-(4-(4-bromophenoxy)benzene-sulfonyl)-tetrahydro-2H-1,4-thiazine-3-carboxamide], the Ki turned out to be 0.017 nM in experiment [1]; 109 nM in experiment [2]; 0.41 nM in experiment [3] (setting [6]); 23 nM in experiment [4]; 0.013 nM in experiment [5].
